For one assay, the target named is FGFR3 (h) (Homo sapiens, UniProt P22607). Put plainly: FGFR3 (enzymatic assay), TR-FRET. The format is biochemical. Conditions: read-out: FGFR 3 pIC50 (converted). From the text:
Time-Resolved Fluorescence Resonance Energy Transfer (TR-FRET) signal (ex340 nm.
In general terms: In TR-FRET formats the signal depends on donor and acceptor labels being close together.

The next assay addresses KDR (h) (Homo sapiens, UniProt P35968). The experiment in a line: KDR (VEGFR2) (enzymatic assay), TR-FRET. Conditions: read-out: VEGFR 2 (KDR) pIC50 (converted). The class given is biochemical. A digest of the protocol: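 First, kinase (150 ng/ml), Btn-Flt3 (500 nM), ATP (3 μM) and compound (1% DMSO) react 120 min at RT in pH 7.5 HEPES/6 mM MnCl2. Next, EDTA with Eu-anti-P-Tyr and SA-XL-665 stops it for 60 min. Finally, TR-FRET is read as RFU.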

A further assay addresses FGFR4 (h) (Homo sapiens, UniProt P22455). Put plainly: FGFR4 (enzymatic assay), TR-FRET. The class given is biochemical. Conditions: FGFR 4 pIC50, enzymatic assay.
Assay [1] has as its system Ba/F3-FGFR1-transfected cells. The experiment in a line: Ba/F3-FGFR1 (plus IL3) cellular proliferation assay, counterscreen with 10 ng/ml murine IL3. The format is cell-based. Conditions: plus IL3 (10 ng/ml murine IL3, counterscreen); read-out: BAF3-FGFR1 (PLUS IL3) pIC50 (converted). In outline:
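Ba/F3-FGFR1 cells (20000/well) in RPMI-1640 with 10% FBS exposed to compound for 24 h at 37° C., 5% CO2, then Alamar Blue (resazurin) added for 4 h; fluorescence read at ex 540/em 590 nm. Counterscreen run identically with 10 ng/ml murine IL3.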

Assay [2] addresses T1, Ba/F3-KDR-transfected cells (Homo sapiens, UniProt P35968).
T1 construct: BAF3-KDR (MIN IL3) pIC50; other: minus IL3
The experiment in a line: Ba/F3-KDR (minus IL3) cellular proliferation assay, Alamar Blue. The class given is cell-based. In outline:
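Proliferation is measured as Alamar Blue relative fluorescence units following 24 h compound treatment of 20000 cells per well in 10% FBS medium. The IL3-supplemented run serves as a counterscreen under the same conditions.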
(The colour change of resazurin is a common sign of viable cells or microbes.)

Assay [3] relates to Ba/F3-FGFR3-transfected cells. Put plainly: Ba/F3-FGFR3 (plus IL3) cellular proliferation assay, counterscreen with 10 ng/ml murine IL3. The class given is cell-based. Conditions: plus IL3 (10 ng/ml murine IL3, counterscreen); read-out: BAF3-FGFR3 (PLUS IL3) pIC50 (converted). A digest of the protocol: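 Compound dilutions were dispensed first, then 20000 FGFR3-transfected Ba/F3 cells per well in serum-containing RPMI-1640 were added. After 24 h incubation at 37° C, Alamar Blue was applied for 4 h before relative fluorescence units were recorded. In the minus-IL3 format cells grow without cytokine; the other format contains 10 ng/ml murine IL3.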

The target in the next assay is FGFR1 (h) (Homo sapiens, UniProt P11362). The experiment in a line: FGFR1 (enzymatic assay), TR-FRET. Conditions: read-out: FGFR 1 pIC50 (converted). The format is biochemical.
For the next assay, the target named is FGFR2 (h) (Homo sapiens, UniProt P21802). The experiment in a line: FGFR2 (enzymatic assay), TR-FRET. Conditions: enzymatic assay; read-out: FGFR 2 pIC50 (converted). The format is biochemical. A digest of the protocol: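 Compound (1% DMSO final) was combined with FGFR2 (h), 150 ng/ml, plus 0.4 μM ATP and 500 nM biotin-Flt3 in Mn2+-containing HEPES buffer at pH 7.5.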
FGFR2 (h), sequence (P21802 22-821): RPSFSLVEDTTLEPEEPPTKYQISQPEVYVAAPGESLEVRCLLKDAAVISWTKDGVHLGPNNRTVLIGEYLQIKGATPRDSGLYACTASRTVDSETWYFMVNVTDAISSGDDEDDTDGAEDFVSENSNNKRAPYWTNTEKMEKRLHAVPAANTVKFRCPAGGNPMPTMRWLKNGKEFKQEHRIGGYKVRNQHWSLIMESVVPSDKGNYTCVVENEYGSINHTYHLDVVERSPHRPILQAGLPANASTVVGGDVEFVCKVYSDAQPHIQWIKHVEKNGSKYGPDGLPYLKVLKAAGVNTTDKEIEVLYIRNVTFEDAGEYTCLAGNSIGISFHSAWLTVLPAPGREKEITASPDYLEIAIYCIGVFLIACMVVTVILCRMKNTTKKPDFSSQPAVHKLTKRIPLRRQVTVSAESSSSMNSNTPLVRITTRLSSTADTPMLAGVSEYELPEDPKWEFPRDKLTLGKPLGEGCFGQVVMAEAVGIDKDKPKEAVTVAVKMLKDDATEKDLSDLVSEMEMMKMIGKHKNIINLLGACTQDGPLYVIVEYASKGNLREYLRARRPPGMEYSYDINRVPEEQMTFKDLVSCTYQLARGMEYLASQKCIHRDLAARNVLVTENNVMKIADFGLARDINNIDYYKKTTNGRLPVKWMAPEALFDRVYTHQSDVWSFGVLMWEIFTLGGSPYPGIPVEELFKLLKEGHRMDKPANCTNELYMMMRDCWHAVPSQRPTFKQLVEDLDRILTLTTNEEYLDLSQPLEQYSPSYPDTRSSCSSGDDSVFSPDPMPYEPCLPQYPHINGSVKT

Assay [4] addresses Ba/F3-FGFR4-transfected cells (Homo sapiens, UniProt P22455). The experiment in a line: Ba/F3-FGFR4 cellular proliferation assay, Alamar Blue. The format is cell-based. In outline: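 Proliferation of Ba/F3-FGFR4-transfected cells is gauged by Alamar Blue (resazurin) fluorescence after 24 hours of compound treatment in phenol red free RPMI-1640 with 10% FBS.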

KDR (h), sequence (P35968 20-1356): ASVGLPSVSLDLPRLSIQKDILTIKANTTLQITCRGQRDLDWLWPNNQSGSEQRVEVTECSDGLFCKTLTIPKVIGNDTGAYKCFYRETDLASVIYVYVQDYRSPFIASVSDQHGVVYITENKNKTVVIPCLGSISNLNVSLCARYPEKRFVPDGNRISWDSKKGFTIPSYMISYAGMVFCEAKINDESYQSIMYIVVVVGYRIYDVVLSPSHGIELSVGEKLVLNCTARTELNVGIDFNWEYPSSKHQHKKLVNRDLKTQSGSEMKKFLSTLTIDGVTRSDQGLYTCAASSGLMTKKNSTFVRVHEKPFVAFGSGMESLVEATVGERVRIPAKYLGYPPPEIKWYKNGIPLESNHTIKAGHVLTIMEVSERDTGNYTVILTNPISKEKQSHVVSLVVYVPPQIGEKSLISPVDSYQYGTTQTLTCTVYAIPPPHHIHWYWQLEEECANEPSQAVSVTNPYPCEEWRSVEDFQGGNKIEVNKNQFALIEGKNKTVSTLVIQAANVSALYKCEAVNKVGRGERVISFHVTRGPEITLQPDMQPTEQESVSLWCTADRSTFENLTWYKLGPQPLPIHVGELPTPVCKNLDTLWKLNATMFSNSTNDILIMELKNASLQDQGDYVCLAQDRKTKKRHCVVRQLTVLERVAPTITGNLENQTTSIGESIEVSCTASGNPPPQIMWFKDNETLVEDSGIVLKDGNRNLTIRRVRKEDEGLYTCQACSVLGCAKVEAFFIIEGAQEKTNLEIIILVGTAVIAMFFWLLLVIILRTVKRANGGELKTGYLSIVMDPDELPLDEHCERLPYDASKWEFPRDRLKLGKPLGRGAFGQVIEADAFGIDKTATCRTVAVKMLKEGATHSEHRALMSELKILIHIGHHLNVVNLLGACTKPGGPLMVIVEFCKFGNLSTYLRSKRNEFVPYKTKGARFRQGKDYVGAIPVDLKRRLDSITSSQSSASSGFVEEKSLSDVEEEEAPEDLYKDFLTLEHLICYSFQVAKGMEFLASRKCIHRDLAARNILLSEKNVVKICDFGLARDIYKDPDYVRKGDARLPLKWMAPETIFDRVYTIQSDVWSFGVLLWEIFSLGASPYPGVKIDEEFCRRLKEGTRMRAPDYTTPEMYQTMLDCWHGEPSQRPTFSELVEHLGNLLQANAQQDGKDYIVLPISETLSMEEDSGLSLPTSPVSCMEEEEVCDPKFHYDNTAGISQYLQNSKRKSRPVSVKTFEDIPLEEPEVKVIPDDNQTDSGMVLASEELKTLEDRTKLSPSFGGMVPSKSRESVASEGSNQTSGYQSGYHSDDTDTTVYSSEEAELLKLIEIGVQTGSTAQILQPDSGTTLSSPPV
T1 sequence (P35968 whole entry, change not shown): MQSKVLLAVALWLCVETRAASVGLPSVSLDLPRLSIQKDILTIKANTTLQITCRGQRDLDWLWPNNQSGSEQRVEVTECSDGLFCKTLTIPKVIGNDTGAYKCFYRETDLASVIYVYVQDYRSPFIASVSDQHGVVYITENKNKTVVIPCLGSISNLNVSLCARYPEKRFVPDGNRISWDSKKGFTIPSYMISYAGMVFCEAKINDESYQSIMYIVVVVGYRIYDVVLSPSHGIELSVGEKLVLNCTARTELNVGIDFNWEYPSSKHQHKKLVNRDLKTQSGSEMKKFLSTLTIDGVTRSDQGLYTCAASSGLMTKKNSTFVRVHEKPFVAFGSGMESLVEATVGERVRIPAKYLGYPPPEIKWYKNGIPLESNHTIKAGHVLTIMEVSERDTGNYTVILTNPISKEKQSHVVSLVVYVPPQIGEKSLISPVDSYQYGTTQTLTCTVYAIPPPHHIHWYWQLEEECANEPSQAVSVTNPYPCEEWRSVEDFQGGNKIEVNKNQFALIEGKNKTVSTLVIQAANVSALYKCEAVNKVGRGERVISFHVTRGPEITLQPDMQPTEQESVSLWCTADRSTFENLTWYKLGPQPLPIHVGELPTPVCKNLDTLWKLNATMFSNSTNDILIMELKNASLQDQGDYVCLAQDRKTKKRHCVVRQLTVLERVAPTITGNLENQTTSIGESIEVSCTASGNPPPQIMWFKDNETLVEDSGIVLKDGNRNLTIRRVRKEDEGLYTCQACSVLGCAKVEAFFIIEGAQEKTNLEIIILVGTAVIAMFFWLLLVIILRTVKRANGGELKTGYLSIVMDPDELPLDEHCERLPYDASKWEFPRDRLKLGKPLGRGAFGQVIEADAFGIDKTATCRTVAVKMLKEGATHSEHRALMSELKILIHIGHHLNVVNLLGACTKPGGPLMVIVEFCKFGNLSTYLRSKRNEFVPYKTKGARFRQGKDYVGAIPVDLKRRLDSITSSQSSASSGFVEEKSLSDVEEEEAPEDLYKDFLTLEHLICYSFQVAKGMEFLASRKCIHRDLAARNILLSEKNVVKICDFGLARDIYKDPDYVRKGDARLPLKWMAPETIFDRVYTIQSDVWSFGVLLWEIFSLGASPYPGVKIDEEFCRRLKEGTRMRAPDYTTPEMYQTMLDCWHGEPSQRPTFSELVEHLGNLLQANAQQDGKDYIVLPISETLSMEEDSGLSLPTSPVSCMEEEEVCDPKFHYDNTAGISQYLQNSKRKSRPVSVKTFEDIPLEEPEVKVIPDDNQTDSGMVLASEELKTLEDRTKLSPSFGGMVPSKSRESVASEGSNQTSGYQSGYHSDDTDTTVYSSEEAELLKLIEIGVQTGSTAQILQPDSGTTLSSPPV
FGFR3 (h), sequence (P22607 23-806): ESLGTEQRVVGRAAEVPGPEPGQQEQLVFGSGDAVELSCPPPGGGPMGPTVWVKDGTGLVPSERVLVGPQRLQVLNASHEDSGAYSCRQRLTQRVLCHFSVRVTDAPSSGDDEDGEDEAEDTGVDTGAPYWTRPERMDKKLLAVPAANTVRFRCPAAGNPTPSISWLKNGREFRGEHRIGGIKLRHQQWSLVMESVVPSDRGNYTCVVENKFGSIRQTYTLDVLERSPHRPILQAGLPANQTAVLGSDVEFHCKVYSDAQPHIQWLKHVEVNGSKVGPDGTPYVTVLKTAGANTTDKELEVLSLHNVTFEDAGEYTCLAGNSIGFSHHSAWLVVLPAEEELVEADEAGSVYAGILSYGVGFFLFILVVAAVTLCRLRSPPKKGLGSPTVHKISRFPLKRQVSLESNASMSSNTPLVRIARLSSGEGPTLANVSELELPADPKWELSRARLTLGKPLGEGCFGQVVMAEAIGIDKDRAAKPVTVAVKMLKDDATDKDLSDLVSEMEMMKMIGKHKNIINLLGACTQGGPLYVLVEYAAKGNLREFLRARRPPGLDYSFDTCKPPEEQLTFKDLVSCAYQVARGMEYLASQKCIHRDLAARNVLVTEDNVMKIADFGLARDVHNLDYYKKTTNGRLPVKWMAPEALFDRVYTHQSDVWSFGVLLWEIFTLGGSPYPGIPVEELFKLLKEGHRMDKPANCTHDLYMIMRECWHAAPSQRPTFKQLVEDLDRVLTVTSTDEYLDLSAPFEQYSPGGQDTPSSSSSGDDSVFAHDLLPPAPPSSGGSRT
Ba/F3-FGFR4-transfected cells, sequence (P22455 whole entry, change not shown): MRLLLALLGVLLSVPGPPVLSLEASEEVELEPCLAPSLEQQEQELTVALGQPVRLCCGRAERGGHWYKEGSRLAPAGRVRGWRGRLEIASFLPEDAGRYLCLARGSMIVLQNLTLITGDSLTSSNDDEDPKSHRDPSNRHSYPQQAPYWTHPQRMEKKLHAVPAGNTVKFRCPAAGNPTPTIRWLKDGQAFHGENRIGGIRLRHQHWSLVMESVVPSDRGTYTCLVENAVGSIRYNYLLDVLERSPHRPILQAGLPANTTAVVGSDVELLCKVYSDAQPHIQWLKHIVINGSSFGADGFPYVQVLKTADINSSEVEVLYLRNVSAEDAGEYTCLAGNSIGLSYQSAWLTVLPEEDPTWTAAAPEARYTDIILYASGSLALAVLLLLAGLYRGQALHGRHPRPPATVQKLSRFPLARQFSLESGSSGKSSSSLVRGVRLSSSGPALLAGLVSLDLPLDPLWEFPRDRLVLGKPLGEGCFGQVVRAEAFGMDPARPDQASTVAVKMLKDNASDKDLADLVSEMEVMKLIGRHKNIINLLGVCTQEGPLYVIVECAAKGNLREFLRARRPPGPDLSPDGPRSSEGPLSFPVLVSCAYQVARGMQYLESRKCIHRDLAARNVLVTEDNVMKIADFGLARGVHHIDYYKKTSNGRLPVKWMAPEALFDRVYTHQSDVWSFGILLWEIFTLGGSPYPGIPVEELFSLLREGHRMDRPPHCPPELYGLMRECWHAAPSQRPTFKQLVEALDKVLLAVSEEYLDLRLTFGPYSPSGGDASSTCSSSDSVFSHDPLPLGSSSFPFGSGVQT

For `COc1cc(OC)cc(N(Cc2nnc(NCCO)o2)c2ccc3ncc(-c4cnn(C)c4)nc3n2)c1` [Compound 282], the IC50 on FGFR3 (h) is 25.7 nM; at KDR (h), 661 nM; against FGFR4 (h) it was 105 nM; in [1], greater than 10000 nM; in [3] it was greater than 10000 nM; at FGFR1 (h), 33.1 nM. The IC50 at FGFR2 (h) is 19.1 nM. The “BAF3-KDR (MIN IL3) pIC50” value in assay [2] was less than 5. The “BAF3-FGFR4 pIC50” value in assay [4] is recorded as less than 5.
For the compound `COc1cc(OC)c(F)c(N(CC2CCC(=O)N2)c2ccc3ncc(-c4cnn(CC(C)(C)O)c4)nc3n2)c1` (stereo not drawn) [Compound 285], the IC50 at FGFR3 (h) was 2.75 nM; at KDR (h) it was 35.5 nM; against FGFR4 (h), 7.24 nM; in assay [1] it was greater than 10000 nM; in [3], greater than 10000 nM; on FGFR1 (h), 2.34 nM. In addition, the IC50 at FGFR2 (h) was 4.07 nM. Moreover, the “BAF3-KDR (MIN IL3) pIC50” value in assay [2] was determined as 5.36. Further, the “BAF3-FGFR4 pIC50” value in assay [4] worked out at 6.12.
Turning to `COc1cc(/N=c2\ccc3ncc(-c4cnn(CC(C)(C)O)c4)nc3n2CC2CCC(=O)N2)c(F)c(OC)c1` (stereo not drawn) [Compound 286], the IC50 at FGFR3 (h) is 1.35 nM; on KDR (h), 11 nM; on FGFR4 (h) it was 3.89 nM; in assay [1] it was greater than 10000 nM; in [3], greater than 10000 nM; on FGFR1 (h), roughly 1.55 nM. In addition, the IC50 at FGFR2 (h) was 2.04 nM. For the same compound, in assay [2], the “BAF3-KDR (MIN IL3) pIC50” value worked out at 6.23. Moreover, the “BAF3-FGFR4 pIC50” value in [4] is 6.69.
For `COc1cc(OC)c(F)c(N(c2ccc3ncc(-c4cnn(C)c4)nc3n2)C(C)c2ncc[nH]2)c1` (stereo not drawn) [Compound 287], the IC50 is 2.14 nM at FGFR3 (h); 17.4 nM at KDR (h); 2.14 nM against FGFR4 (h); greater than 10000 nM in [1]; greater than 10000 nM in [3]; 0.851 nM on FGFR1 (h). Moreover, the IC50 at FGFR2 (h) was 3.09 nM. Further, the “BAF3-KDR (MIN IL3) pIC50” value in assay [2] amounted to 6.62. Besides, the “BAF3-FGFR4 pIC50” value in assay [4] was found to be 8.08.
In the case of `CNCCn1ccnc1CN(c1ccc2ncc(-c3cnn(C)c3)nc2n1)c1cc(OC)cc(OC)c1F` [Compound 289], the IC50 on FGFR3 (h) is 12.9 nM; at KDR (h), 97.7 nM; against FGFR4 (h) it was 57.5 nM; in [1], greater than 10000 nM; in [3], greater than 10000 nM; at FGFR1 (h) it was 4.37 nM. Besides, on FGFR2 (h), the IC50 is 8.51 nM. For the same compound, the “BAF3-KDR (MIN IL3) pIC50” value in assay [2] came to 5.28. Besides, the “BAF3-FGFR4 pIC50” value in assay [4] was 6.07.
Regarding `COc1cc(OC)cc(N(CCNC2COC2)c2ccc3ncc(-c4cnn(C)c4)nc3n2)c1` [Compound 290], the IC50 on FGFR3 (h) is 4.47 nM; on KDR (h) it was 55 nM; against FGFR4 (h), 12.9 nM; in [1] it was greater than 10000 nM; in assay [3], greater than 10000 nM; at FGFR1 (h) it was 3.55 nM. For the same compound, the IC50 on FGFR2 (h) is 4.47 nM. In addition, the “BAF3-KDR (MIN IL3) pIC50” value in [2] turned out to be 5.81. The “BAF3-FGFR4 pIC50” value in assay [4] was determined as 6.32.
Take `COc1cc(OC)c(F)c(N(Cc2ncc[nH]2)c2ccc3ncc(N4CCOCC4)nc3n2)c1` [Compound 291]: the IC50 at FGFR3 (h) is 1.2 nM; on KDR (h), 89.1 nM; at FGFR4 (h), 3.39 nM; in [1] it was greater than 10000 nM; in [3] it was greater than 10000 nM; at FGFR1 (h) it was 0.871 nM. Further, on FGFR2 (h), the IC50 is 1.55 nM. In addition, in assay [2], the “BAF3-KDR (MIN IL3) pIC50” value was found to be 5.68. In addition, in assay [4], the “BAF3-FGFR4 pIC50” value worked out at 7.08.
As to `COc1cc(OC)cc(N(Cc2ncc[nH]2)c2ccc3ncc(N4CCOCC4)nc3n2)c1` [Compound 293], the IC50 was 1.58 nM at FGFR3 (h); 234 nM on KDR (h); 4.79 nM on FGFR4 (h); greater than 10000 nM in assay [1]; greater than 10000 nM in assay [3]; 1.62 nM at FGFR1 (h). For the same compound, the IC50 on FGFR2 (h) was 1.82 nM. Besides, the “BAF3-KDR (MIN IL3) pIC50” value in assay [2] worked out at 5.31. In addition, in assay [4], the “BAF3-FGFR4 pIC50” value was found to be 6.82.
Regarding `COc1cc(OC)c(F)c(N(Cc2ncc[nH]2)c2ccc3ncc(-c4cnn(CCCN)c4)nc3n2)c1` [Compound 295], the IC50 at FGFR3 (h) was 1.29 nM; on KDR (h), 9.33 nM; on FGFR4 (h), 2.4 nM; in assay [1] it was greater than 10000 nM; in [3], greater than 10000 nM; on FGFR1 (h), 0.562 nM. Besides, at FGFR2 (h), the IC50 was 1.74 nM. In addition, the “BAF3-KDR (MIN IL3) pIC50” value in assay [2] is 6.45. Moreover, in [4], the “BAF3-FGFR4 pIC50” value is recorded as 7.61.
As to `COc1cc(OC)c(F)c(N(Cc2noc(C)n2)c2ccc3ncc(-c4cnn(C)c4)nc3n2)c1` [Compound 297], the IC50 on FGFR3 (h) is 1.7 nM; on KDR (h), 16.2 nM; against FGFR4 (h), 3.02 nM; in assay [1], greater than 10000 nM; in assay [3], greater than 10000 nM; at FGFR1 (h), 0.794 nM. For the same compound, the IC50 at FGFR2 (h) was 1.78 nM. In addition, in assay [2], the “BAF3-KDR (MIN IL3) pIC50” value came to 6.08. For the same compound, the “BAF3-FGFR4 pIC50” value in assay [4] was 6.99.
With `COc1cc(OC)c(F)c(N(CC2CCC(=O)N2)c2ccc3ncc(-c4cnn(C5CNC5)c4)nc3n2)c1` (stereo not drawn) [Compound 299], the IC50 is 3.55 nM on FGFR3 (h); 120 nM on KDR (h); 8.91 nM on FGFR4 (h); greater than 10000 nM in [1]; greater than 10000 nM in [3]; 1.78 nM at FGFR1 (h). Further, the IC50 on FGFR2 (h) is 4.68 nM. Also, the “BAF3-KDR (MIN IL3) pIC50” value in [2] is reported as less than 5. The “BAF3-FGFR4 pIC50” value in [4] was found to be 5.32.

Values taken from patent publication US9309242B2, “Substituted pyrido[2,3-b]pyrazines as FGFR kinase inhibitors” (priority 2011, dated 2016).
